How the values were obtained:
AnaPS = AnaPS (Aspergillus fischeri, UniProt A1DN09); test: amino acid-dependent ATP-[…]PPi exchange; type: biochemical; conditions: adenylation domain substrate; ATP co-substrate
TqaA = TqaA (Penicillium aethiopicum, UniProt F1CWE4); test: amino acid-dependent ATP-[…]PPi exchange; type: biochemical; conditions: adenylation domain substrate; ATP co-substrate

AnaPS, sequence (A1DN09 whole entry, the tested form may be a part): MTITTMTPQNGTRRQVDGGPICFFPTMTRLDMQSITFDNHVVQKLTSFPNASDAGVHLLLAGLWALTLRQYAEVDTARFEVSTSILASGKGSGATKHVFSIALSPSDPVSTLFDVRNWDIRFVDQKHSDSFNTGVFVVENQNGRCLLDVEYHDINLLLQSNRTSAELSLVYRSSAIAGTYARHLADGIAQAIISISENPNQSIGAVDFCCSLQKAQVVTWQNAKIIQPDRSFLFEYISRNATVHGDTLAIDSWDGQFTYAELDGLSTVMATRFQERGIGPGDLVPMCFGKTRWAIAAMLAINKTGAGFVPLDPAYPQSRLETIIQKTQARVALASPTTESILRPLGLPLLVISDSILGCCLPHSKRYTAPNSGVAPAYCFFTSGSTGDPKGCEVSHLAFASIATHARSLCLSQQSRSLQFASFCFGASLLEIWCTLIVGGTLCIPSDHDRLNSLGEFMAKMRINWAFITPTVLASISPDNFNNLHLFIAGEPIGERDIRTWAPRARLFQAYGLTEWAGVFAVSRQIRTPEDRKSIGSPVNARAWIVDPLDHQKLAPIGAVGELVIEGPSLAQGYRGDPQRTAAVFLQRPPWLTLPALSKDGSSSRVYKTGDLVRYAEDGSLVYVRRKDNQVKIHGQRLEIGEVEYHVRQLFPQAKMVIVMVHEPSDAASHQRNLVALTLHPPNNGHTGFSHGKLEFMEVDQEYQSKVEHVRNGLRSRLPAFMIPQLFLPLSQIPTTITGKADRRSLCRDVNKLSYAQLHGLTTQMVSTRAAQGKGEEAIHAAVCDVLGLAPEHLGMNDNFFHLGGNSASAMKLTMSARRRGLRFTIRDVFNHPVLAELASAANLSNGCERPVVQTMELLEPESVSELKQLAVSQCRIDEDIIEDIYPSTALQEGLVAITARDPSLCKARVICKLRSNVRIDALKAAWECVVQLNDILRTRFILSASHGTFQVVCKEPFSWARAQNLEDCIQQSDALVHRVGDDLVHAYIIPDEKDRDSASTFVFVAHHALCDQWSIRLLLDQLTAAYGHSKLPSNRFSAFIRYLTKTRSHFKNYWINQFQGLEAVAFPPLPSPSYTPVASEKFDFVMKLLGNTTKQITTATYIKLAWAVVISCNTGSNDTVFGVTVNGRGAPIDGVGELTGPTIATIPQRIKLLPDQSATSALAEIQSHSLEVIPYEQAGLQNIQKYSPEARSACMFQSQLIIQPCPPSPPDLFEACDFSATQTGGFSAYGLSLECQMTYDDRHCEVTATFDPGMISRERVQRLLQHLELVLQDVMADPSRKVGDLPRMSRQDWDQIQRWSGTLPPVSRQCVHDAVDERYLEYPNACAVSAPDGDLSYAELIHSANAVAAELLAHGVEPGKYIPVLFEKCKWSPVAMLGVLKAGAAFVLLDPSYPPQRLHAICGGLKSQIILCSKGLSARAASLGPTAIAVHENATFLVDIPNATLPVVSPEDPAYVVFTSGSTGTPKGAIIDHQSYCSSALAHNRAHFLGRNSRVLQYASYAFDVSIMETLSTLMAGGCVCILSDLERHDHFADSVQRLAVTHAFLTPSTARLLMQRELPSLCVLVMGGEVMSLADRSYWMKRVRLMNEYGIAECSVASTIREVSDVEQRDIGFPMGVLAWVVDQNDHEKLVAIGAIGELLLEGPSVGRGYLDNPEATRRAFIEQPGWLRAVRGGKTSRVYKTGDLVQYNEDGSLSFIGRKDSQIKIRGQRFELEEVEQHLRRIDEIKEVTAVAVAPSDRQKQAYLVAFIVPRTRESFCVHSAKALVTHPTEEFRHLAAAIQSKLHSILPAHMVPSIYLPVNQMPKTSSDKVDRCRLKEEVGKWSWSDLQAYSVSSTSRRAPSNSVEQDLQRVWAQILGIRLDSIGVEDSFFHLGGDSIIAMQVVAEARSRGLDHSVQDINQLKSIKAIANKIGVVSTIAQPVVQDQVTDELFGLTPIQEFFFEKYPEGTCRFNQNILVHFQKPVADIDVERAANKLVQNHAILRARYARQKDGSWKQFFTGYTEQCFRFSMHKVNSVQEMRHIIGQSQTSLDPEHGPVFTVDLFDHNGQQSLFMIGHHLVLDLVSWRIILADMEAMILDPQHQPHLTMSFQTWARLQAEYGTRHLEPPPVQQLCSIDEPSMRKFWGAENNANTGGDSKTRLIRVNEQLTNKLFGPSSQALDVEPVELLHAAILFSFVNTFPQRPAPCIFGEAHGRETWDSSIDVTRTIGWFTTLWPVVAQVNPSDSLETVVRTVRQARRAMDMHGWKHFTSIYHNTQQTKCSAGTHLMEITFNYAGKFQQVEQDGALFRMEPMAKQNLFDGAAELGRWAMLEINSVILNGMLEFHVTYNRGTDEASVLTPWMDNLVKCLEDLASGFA

| SMILES | amino acid-dependent ATP-[32P]PPi exchange (AnaPS) | amino acid-dependent ATP-[32P]PPi exchange (TqaA) |
| --- | --- | --- |
| N[C@@H](Cc1c[nH]c2ccccc12)C(=O)O [L-tryptophan] | Similarly, AnaPS A domains activated Ant and L-Trp | – |
| Nc1ccccc1C(=O)O [anthranilate] | Similarly, AnaPS A domains activated Ant and L-Trp | TqaA specifically activated the three building blocks Ant, L-Trp and L-Ala |
